In publication PMC3097154, “Antiviral activity of α-helical stapled peptides designed from the HIV-1 capsid dimerization domain” (Retrovirology, 2011):
Where two headings read alike, the source gives them in different places. Positions of bridges follow the written chain, without caps; N, C: chain ends. Non-standard residues stand in square brackets, D forms with d. Residues, ends and D or L forms follow the SMILES beside them. S5 = C=CCCC[C@](C)(N)C(=O)O

Columns and labels:
[1] = NMR of isolated peptide (self-association); assay type: physicochemical; settings: 20 mM phosphate buffer pH 7.0, 288 K
[2] = tested on: monomeric CTD mutant (W184A/M185A); test: Binding to monomeric CTD mutant; set-up: species or system HIV-1; settings: data not shown
HIV-1 CA = settings: 25°C, pH 7.3, ideal single-species model, CA alone 41,213
Procedure: In the second set of experiments, the possible effect of NYAD-203 on dimer stability was analyzed by sedimentation equilibrium.
Sedimentation equilibrium experiments were performed using a ProteomeLab XL-A analytical ultracentrifuge using 6-channel centerpieces in an An-60Ti rotor at 25°C. Protein samples were dialyzed into 50 mM sodium phosphate buffer (pH 7.3). […] Radial scans were measured at 280 nm. The data were fitted to an ideal single-species model as well as a rapid monomer-dimer equilibrium using the Beckman XL-A/XL-I Data Analysis Software (Version 6.03).

[3] = tested on: wild type CTD (wtCTD) of HIV-1 CA; test: ITC dilution of CTD dimers in presence of peptide; assay type: binding; settings: for Kdiss (apparent CTD dimer dissociation constant): ITC dilution, 30°C; for 200 μM CTD (fm), estimated fraction of CTD occurring as monomers: calculated from monomer-dimer equilibrium expressions
Procedure: The effect of the dimer interface peptide, NYAD-203, a soluble analog of NYAD-201, on dimer dissociation was first examined by isothermal titration calorimetry (ITC). Dilution of CTD by sequential ITC injections into buffer, pH 7.3, 30°;C gave a series of endothermic heat pulses (Figure 4) consistent with dissociation of protein oligomers modeled as dimers, with dimer dissociation constant (Kdiss) ~15 μM and dissociation enthalpy (ΔHdiss) of 10.7 kcal mole^-1. […] For such a mechanism, the apparent dimer dissociation constant should depend on the free peptide (inhibitor) concentration ([I]) and binding affinity (KI) as follows: [drawing 1]
or an approximate form that might be valid at high inhibitor concentrations: [drawing 2]
where Ci is the total peptide inhibitor concentration in the mixture. This analysis is, however, further complicated by apparent self-association of the peptide (see NMR section) that reduces the availability of free monomer (lower [I]) at higher concentrations and thus leads to underestimation of peptide binding affinities and a concentration dependence of apparent Ki. However, by use of the above equations and extrapolation to low concentrations, we obtain a value of Ki = 40 (±5) μM for the binding of stapled peptide (NYAD-203) monomer to CTD under these conditions.
The influence of the peptides on dimer dissociation of wild type CTD (wtCTD) was investigated by ITC (MicroCal VP-ITC) following established protocols. Proteins were exhaustively dialyzed against the 25 mM sodium phosphate buffer (pH 7.3) prior to experimental measurements. In a typical experiment, the ITC injection syringe was loaded with 250 μM protein, dissolved in dialysis buffer or dialysis buffer/peptide mixture and the calorimetric cell (ca. 1.4 ml active volume) initially contained only the identical buffer mixture. Typically titrations consisted of 28 injections of 10 μl, with 240-s equilibration between injections. The thermodynamic parameters were obtained and data were analyzed using MicroCal Origin 7.0 software, using an updated and corrected (June 2008) version of the dissociation analysis procedure, validated by comparison with earlier analysis methods.

[4] = tested on: GFP-Vpr-labeled HIV-1 virions in SupT1 cells; test: Virus entry, GFP-Vpr-labeled HIV-1 virions, FACS; assay type: cell-based; settings: 111 nM

CSCC[C@@H]1NC(=O)[C@H](Cc2c[nH]c3ccccc23)NC(=O)[C@@](C)(NC(=O)[C@H](CCCCN)NC(=O)[C@@H](NC(=O)[C@H](C)NC(=O)[C@H](CCC(N)=O)NC(=O)[C@H](C)N)C(C)C)CCC/C=C\CCC[C@@](C)(C(=O)N[C@H](C(=O)N[C@@H](CC(C)C)C(=O)N[C@@H](CC(C)C)C(=O)N[C@H](C(=O)N[C@@H](C)C(=O)N[C@@H](CCCCN)C(=O)N[C@@H](CCCCN)C(=O)N[C@@H](CCCCN)C(=O)O)C(C)C)[C@@H](C)O)NC(=O)[C@H]([C@@H](C)O)NC1=O [NYAD-203] (H-AQAVK[S5]WMT[S5]TLLVAKKK-OH; staple (Z) 6-10; N-terminus and C-terminus assumed)
self-association of isolated peptide [1]: self-associates to form polymeric species | affinity for monomeric CTD mutant (W184A/M185A) [2]: no measurable affinity | apparent molecular weight of CA (HIV-1 CA; CA:NYAD-203 = 1:1 (30 μM CA, 30 μM peptide)): 30,343 Daltons | apparent molecular weight of CA (HIV-1 CA; CA:NYAD-203 = 1:3 (30 μM CA, 90 μM peptide)): 27,338 Daltons | Kdiss (apparent CTD dimer dissociation constant) ([3]; CI 50 μM NYAD-203, 25 mM sodium phosphate pH 7.3, 250 μM CTD in syringe): 31.2 (±6.6) μM | 200 μM CTD (fm), estimated fraction of CTD occurring as monomers ([3]; CI 50 μM NYAD-203): 24% | Kdiss (apparent CTD dimer dissociation constant) ([3]; CI 200 μM NYAD-203, pH 7.3): 33.2 (±3.9) μM | 200 μM CTD (fm), estimated fraction of CTD occurring as monomers ([3]; CI 200 μM NYAD-203): 25% | Kdiss (apparent CTD dimer dissociation constant) ([3]; CI 350 μM NYAD-203, pH 7.3): 40.5 (±6.2) μM | 200 μM CTD (fm), estimated fraction of CTD occurring as monomers ([3]; CI 350 μM NYAD-203): 27%

IRQGPKEPFRDYVDR [NYAD-401]
ITC heat effect (binding) ([3]; unstapled control peptide): no apparent heat effect

enfuvirtide [T-20]
inhibition of viral entry [4]: substantially inhibited viral entry
